Measured values published in patent publication US20260365670A1, “EGFR INHIBITORS AND USES THEREOF” (DIZAL (JIANGSU) PHARMACEUTICAL CO., LTD., priority 2022, published 2026).
pIC50: −log10 of the molar value. Where two headings read alike, the source gives them in different places.

How the values were obtained:
PC-9 = assay: Cell proliferation assay, PC-9 cells (CellTiter-Glo, 72 hours); format: cell-based; conditions: PC9 cells, CellTiter-Glo, read-out: PC9 GI50
Method in brief: (§1)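 In RPMI1640 medium (PC-9 with 10% FBS), each cell line was seeded at its own density: Ba/F3 5000 and PC-9 500 per well. A compound series was added the next day, with a time-zero viability plate read in parallel. Percent proliferation was subtracted for G0 and referenced to DMSO, and GI50 was derived by curve fitting.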

EGFR Exon19Del = target: T1, EGFR Exon19Del (Homo sapiens, UniProt P00533, DEL746-750); assay: Inhibition of EGFR Exon19Del biochemical enzymatic activity (HTRF); conditions: EGFR Del19, 1 mM ATP, 1 h, room temperature, read-out: IC50 @Del19
T1 construct: purchased Carna Bio
T1 sequence (P00533 with tags, fused parts or gaps DEL746-750 limits assumed): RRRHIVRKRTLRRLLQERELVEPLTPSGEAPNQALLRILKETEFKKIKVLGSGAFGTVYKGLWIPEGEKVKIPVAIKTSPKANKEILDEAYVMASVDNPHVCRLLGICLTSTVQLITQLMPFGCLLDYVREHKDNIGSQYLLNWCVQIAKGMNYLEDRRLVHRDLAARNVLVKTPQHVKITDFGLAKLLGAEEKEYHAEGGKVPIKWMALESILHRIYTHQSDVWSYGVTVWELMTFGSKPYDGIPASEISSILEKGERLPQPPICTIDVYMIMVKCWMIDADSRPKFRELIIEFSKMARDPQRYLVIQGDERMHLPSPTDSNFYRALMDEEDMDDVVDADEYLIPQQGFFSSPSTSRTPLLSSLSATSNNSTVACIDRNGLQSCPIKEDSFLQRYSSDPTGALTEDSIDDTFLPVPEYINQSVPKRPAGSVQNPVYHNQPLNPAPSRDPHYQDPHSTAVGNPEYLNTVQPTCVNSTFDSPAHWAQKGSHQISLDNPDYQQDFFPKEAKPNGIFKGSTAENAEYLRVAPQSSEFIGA
Method in brief: (§2)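 Following 1 h at room temperature with titrated compound, 1 mM ATP and 1 μM biotin-TK peptide (Mg2+/Mn2+, CHAPS, DTT, 0.5% DMSO buffer), EDTA-containing detection reagent terminated each enzyme reaction. Time-resolved fluorescence (ex 320, em 665/615 nm) ratio tracked activity. IC50 values came from four-parameter fits.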

EGFR[T790M/C797S/L858R] = target: T2, EGFR[T790M/C797S/L858R] (Homo sapiens, UniProt P00533, C797S/L858R/T790M); assay: Inhibition of EGFR[T790M/C797S/L858R] biochemical enzymatic activity (HTRF); conditions: EGFR T790M-C797S-L858R, 1 mM ATP, 1 h, room temperature, read-out: IC50 (nM) @T790M- C797S - L858R
T2 construct: purchased Carna Bio
T2 sequence (P00533 25-1210 T790M/C797S/L858R): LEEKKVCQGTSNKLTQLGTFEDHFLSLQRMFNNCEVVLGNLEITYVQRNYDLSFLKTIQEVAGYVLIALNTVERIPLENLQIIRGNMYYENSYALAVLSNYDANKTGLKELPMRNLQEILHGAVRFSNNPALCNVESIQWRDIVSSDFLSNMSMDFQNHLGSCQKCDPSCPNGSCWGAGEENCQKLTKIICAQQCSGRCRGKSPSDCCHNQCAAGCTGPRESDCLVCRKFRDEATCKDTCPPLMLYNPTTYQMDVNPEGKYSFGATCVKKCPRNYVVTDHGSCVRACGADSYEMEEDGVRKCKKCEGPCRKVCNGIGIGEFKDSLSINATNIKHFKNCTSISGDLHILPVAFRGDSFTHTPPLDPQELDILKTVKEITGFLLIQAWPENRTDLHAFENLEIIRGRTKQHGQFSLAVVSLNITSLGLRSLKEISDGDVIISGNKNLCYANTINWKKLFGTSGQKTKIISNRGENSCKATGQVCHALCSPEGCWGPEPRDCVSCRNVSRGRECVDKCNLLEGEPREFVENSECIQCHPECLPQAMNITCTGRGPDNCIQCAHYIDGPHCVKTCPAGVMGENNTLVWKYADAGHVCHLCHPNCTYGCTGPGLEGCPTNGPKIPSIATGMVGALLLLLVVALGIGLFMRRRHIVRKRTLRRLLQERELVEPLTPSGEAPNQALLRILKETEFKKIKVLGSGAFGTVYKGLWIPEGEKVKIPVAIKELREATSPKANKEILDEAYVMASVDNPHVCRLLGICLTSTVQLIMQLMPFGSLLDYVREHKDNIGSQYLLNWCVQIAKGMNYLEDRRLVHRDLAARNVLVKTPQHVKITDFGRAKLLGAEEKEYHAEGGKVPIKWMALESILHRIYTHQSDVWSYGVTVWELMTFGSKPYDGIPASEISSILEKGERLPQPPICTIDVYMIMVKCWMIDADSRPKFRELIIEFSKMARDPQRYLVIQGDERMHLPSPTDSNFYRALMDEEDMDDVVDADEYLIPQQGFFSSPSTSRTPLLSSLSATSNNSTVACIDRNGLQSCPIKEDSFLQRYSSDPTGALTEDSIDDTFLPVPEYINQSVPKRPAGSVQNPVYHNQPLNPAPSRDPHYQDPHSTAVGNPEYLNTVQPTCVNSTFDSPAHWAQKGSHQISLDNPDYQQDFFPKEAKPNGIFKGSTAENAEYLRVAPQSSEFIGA
Method in brief: as §2

EGFR wild type = target: T3, EGFR wild type (Homo sapiens, UniProt P00533); assay: Inhibition of EGFR wild type biochemical enzymatic activity (HTRF); conditions: EGFR WT, 1 mM ATP, 1 h, room temperature, read-out: IC50 (nM) @WT
T3 construct: purchased Carna Bio
Method in brief: as §2

[1] = system: Ba/F3 cells expressing EGFR mutations; assay: Cell proliferation assay, Ba/F3 cells expressing EGFR mutations (CellTiter-Glo, 72 hours); format: cell-based; conditions: CellTiter-Glo
Method in brief: as §1

EGFR (C797S L858R) = target: T4, EGFR (C797S L858R) (Homo sapiens, UniProt P00533, C797S/L858R); assay: Inhibition of EGFR (C797S L858R) biochemical enzymatic activity (HTRF); conditions: EGFR L858-C797S, 1 mM ATP, 1 h, room temperature, read-out: IC50 (nM) @L858-C797S
T4 construct: purchased signalchem
T4 sequence (P00533 25-1210 C797S/L858R): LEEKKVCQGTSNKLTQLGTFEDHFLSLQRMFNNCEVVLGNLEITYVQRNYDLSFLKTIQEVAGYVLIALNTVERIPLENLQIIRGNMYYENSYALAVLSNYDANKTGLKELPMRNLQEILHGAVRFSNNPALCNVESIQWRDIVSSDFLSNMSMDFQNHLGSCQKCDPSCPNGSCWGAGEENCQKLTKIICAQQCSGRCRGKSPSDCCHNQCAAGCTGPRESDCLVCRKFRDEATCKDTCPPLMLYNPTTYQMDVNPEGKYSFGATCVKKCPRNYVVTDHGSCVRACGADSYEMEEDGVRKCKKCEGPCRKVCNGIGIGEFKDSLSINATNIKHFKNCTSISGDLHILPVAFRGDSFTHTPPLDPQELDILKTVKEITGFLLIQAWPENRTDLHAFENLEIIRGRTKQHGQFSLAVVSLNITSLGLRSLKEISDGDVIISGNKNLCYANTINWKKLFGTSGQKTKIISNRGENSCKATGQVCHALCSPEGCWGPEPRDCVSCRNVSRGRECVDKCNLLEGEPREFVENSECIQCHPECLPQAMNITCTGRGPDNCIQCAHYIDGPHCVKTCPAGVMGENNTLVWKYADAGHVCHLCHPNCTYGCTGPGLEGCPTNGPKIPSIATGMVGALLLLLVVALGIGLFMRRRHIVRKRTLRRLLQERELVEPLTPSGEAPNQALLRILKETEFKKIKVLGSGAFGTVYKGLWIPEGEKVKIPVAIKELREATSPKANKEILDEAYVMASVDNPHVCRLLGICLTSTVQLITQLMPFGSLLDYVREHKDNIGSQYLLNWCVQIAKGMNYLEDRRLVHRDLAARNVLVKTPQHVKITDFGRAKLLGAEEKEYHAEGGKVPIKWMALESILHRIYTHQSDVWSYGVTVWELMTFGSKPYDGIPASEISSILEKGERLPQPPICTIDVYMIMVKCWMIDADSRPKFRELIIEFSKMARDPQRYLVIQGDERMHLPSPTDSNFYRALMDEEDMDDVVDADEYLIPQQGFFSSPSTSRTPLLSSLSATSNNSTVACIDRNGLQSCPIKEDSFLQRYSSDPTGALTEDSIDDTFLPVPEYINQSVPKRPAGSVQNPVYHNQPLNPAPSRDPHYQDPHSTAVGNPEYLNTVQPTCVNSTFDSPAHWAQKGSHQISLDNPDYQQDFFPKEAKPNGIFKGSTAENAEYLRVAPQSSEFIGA
Method in brief: as §2

A-431 = assay: Cell proliferation GI50, A-431 cells (Table 6); format: cell-based
[2] = target: T5, EGFR[T790M/C797S/d746-750] (Homo sapiens, UniProt P00533, C797S/DEL746-750/T790M); assay: Inhibition of EGFR[T790M/C797S/d746-750] biochemical enzymatic activity (HTRF); conditions: EGFR T790M-C797S-Del19, 1 mM ATP, 1 h, room temperature, read-out: IC50 (nM) @T790M - C797S - Del19
T5 construct: purchased Carna Bio
T5 sequence (P00533 with tags, fused parts or gaps DEL746-750/T790M/C797S limits assumed): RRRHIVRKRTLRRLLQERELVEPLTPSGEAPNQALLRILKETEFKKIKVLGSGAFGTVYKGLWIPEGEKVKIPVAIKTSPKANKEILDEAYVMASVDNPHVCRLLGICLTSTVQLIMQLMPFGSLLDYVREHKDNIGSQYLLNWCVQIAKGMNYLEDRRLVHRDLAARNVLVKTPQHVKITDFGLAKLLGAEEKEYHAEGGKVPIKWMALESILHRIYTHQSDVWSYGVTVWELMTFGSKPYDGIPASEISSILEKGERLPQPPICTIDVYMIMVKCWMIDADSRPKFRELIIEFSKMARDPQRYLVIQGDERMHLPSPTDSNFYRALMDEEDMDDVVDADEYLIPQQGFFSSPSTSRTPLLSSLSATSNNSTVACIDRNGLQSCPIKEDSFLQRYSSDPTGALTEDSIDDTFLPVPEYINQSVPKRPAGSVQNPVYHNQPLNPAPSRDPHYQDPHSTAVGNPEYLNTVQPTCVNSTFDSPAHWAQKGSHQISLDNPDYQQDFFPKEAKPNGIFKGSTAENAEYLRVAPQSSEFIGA
Method in brief: as §2

EGFR L858R/T790M = target: T6, EGFR L858R/T790M (Homo sapiens, UniProt P00533, L858R/T790M); assay: Inhibition of EGFR L858R/T790M biochemical enzymatic activity (HTRF); conditions: EGFR L858R-T790M, 1 mM ATP, 1 h, room temperature, read-out: IC50 (nM) @L858R-T790M
T6 construct: purchased Carna Bio
Method in brief: as §2

EGFR (d746-750 C797S) = target: T7, EGFR (d746-750 C797S) (Homo sapiens, UniProt P00533, C797S/DEL746-750); assay: Inhibition of EGFR (d746-750 C797S) biochemical enzymatic activity (HTRF); conditions: EGFR Del19-C797S, 1 mM ATP, 1 h, room temperature, read-out: IC50 (nM) @Del19-C797S
T7 construct: purchased signalchem
Method in brief: as §2

EGFR L858R = target: T8, EGFR L858R (Homo sapiens, UniProt P00533, L858R); assay: Inhibition of EGFR L858R biochemical enzymatic activity (HTRF); conditions: 1 mM ATP, 1 h, room temperature, read-out: IC50 (nM) @L858R
T8 construct: purchased Carna Bio
T8 sequence (P00533 25-1210 L858R): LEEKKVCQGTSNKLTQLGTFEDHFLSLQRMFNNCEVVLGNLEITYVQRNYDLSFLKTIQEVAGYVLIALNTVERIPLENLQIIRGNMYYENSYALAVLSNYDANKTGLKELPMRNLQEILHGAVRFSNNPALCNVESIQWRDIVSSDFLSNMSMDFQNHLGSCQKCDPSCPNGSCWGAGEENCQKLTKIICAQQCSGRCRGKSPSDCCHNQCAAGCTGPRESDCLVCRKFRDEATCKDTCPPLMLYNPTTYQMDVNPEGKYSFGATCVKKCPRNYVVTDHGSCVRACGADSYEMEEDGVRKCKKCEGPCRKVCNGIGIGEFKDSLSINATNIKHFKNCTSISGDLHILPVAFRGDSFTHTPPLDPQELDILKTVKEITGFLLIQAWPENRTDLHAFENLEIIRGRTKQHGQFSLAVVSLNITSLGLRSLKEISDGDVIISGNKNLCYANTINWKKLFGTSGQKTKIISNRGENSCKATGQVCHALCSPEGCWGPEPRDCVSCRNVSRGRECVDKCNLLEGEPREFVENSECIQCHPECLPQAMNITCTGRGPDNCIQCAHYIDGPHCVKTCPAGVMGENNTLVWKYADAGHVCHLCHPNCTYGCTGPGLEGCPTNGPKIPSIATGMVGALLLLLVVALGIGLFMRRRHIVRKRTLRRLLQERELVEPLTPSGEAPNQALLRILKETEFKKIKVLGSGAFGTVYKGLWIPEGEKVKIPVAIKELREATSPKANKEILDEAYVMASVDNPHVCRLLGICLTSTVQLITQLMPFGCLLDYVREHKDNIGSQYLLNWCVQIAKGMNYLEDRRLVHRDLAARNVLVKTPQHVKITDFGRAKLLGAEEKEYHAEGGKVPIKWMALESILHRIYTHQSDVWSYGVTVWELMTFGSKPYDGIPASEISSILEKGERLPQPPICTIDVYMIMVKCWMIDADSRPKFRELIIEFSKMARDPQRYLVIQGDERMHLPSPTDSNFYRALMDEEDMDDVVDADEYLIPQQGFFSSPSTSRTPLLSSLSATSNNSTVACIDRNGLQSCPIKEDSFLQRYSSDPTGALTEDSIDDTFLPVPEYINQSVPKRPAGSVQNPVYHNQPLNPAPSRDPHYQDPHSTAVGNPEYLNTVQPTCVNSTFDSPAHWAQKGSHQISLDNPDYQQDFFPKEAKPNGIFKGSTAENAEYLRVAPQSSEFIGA
Method in brief: as §2

EGFR Exon19Del/T790M = target: T9, EGFR Exon19Del/T790M (Homo sapiens, UniProt P00533, DEL746-750/T790M); assay: Inhibition of EGFR Exon19Del/T790M biochemical enzymatic activity (HTRF); conditions: EGFR Del19-T790M, 1 mM ATP, 1 h, room temperature, read-out: IC50 (nM) @Del19-T790M
T9 construct: purchased Carna Bio
Method in brief: as §2

[3] = BaF3 cells, EGFR DEL19-C797S, read-out: DEL19-C797S/BaF3 GI50
[4] = BaF3 cells, EGFR DEL19-T790-C797S, read-out: DEL19-T790-C797S/BaF3 GI50
[5] = BaF3 cells, EGFR L858R, read-out: L858R/BaF3 GI50
[6] = BaF3 cells, EGFR L858R-C797S, read-out: L858R-C797S/BaF3 GI50
[7] = BaF3 cells, EGFR L858R-T790-C797S, read-out: L858R-T790-C797S/BaF3 GI50
[8] = BaF3 cells, EGFR L858R-T790M, read-out: L858R-T790M/BaF3 GI50
[9] = EGFR DEL19-T790M, read-out: DEL19-T790M GI50
[10] = Homo sapiens, A-431, A-431 cells
[11] = Mus musculus, BaF3, 72 h, BaF3 cells, EGFR DEL19-C797S, read-out: DEL19-C797S/BaF3 GI50
[12] = Mus musculus, BaF3, 72 h, BaF3 cells, EGFR DEL19-T790-C797S, read-out: DEL19-T790-C797S/BaF3 GI50
[13] = Mus musculus, BaF3, 72 h, BaF3 cells, EGFR L858R, read-out: L858R/BaF3 GI50
[14] = Mus musculus, BaF3, 72 h, BaF3 cells, EGFR L858R-C797S, read-out: L858R-C797S/BaF3 GI50
[15] = Mus musculus, BaF3, 72 h, BaF3 cells, EGFR L858R-T790-C797S, read-out: L858R-T790-C797S/BaF3 GI50
[16] = Mus musculus, BaF3, 72 h, BaF3 cells, EGFR L858R-T790M, read-out: L858R-T790M/BaF3 GI50
[17] = Mus musculus, BaF3, 72 h, EGFR DEL19-T790M, read-out: DEL19-T790M GI50

| SMILES | GI50 (PC-9) [nM] | pIC50 (EGFR Exon19Del) | IC50 (EGFR[T790M/C797S/L858R]) [nM] | IC50 (EGFR wild type) [nM] | GI50 [1, 3] [nM] | GI50 [1, 4] [nM] | GI50 [1, 5] [nM] | GI50 [1, 6] [nM] | GI50 [1, 7] [nM] | GI50 [1, 8] [nM] | GI50 [1, 9] [nM] | IC50 (EGFR (C797S L858R)) [nM] | IC50 [2] [nM] | IC50 (EGFR L858R/T790M) [nM] | IC50 (EGFR (d746-750 C797S)) [nM] | IC50 (EGFR L858R) [nM] | IC50 (EGFR Exon19Del/T790M) [nM] | GI50 (A-431; [10]) [nM] | GI50 (PC-9; Homo sapiens, PC-9, 72 h) [nM] | GI50 [1, 11] [nM] | other results |
| --- | --- | --- | --- | --- | --- | --- | --- | --- | --- | --- | --- | --- | --- | --- | --- | --- | --- | --- | --- | --- | --- |
| Cn1ncc2c1OCCN1CC3CCC(C3)(C1)n1c(nc3ccc(N4CCC(N5CCOCC5)C4)cc31)NC(=O)c1cc-2c(=O)n(C)c1 (single isomer, unassigned) [Example A104B] | 21 | 8.21 | 6.6 | 937 | 0.74 | 6.8 | 12 | 8.2 | 12 | 19 | 6.9 | 33 | 5.9 | 13 | 4.5 | 53 | 8.5 | – | – | – | GI50 (A-431; A-431 cells): 1010 nM |
| CN(C)CCN(C)c1ccc2nc3n(c2c1)C12CCC(CN(CCOc4c(cnn4C)-c4cc(cn(C)c4=O)C(=O)N3)C1)C2 (single isomer, unassigned) [Example A85B] | 12 | 8.92 | 3.1 | 84 | 0.5 | 1.1 | 0.78 | 1.6 | 1.2 | 7.7 | 1.3 | 5.5 | 2.2 | 3.1 | 1.6 | 11 | 2.2 | 969 | – | – | – |
| Cn1ncc2c1OCCN1CC3CCC(CC3)(C1)n1c(nc3ccc(N4CCOCC4)cc31)NC(=O)c1cc-2c(=O)n(C)c1 [Example A74, 15,21-Dimethyl-5-(morpholin-4-yl)-23-oxa-2,9,11,15,20,21,26-heptaazaheptacyclo[26.2.2.1^{1,26}.1^{13,17}.0^{2,10}.0^{3,8}.0^{18,22}]tetratriaconta-3,5,7,9,13,17(34),18(22),19-octaene-12,16-dione] | – | 7.62 | 367 | > 5000 | – | – | – | – | – | – | – | 573 | 6.8 | 81 | 23 | 707 | 8.6 | 2370 | 84 | 4.5 | GI50 [1, 12]: 40 nM; GI50 [1, 13]: 41 nM; GI50 [1, 14]: 41 nM; GI50 [1, 15]: 60 nM; GI50 [1, 16]: 104 nM; GI50 [1, 17]: 37 nM |
| Cn1ncc2c1OCCN1CC3CCC(C3)(C1)n1c(nc3cc(Br)ccc31)NC(=O)c1cc-2c(=O)n(C)c1 (stereo not drawn) [Example A59, 6-Bromo-15,21-dimethyl-23-oxa-2,9,11,15,20,21,26-heptaazaheptacyclo[24.4.1.1^{1,28}.1^{13,17}.0^{2,10}.0^{3,8}.0^{18,22}]tritriaconta-3,5,7,9,13,17(33),18(22),19-octaene-12,16-dione] | – | 6.69 | 807 | > 5000 | – | – | – | – | – | – | – | 4720 | 11 | 2610 | 140 | > 5000 | 11 | 1140 | 295 | 32 | GI50 [1, 12]: 75 nM; GI50 [1, 13]: 201 nM; GI50 [1, 14]: 222 nM; GI50 [1, 15]: 160 nM; GI50 [1, 16]: 964 nM; GI50 [1, 17]: 140 nM |
| CN1CCC2(CCN(c3ccc4nc5n(c4c3)C34CCC(CN(CCOc6c(cnn6C)-c6cc(cn(C)c6=O)C(=O)N5)C3)C4)CC2)C1 (single isomer, unassigned) [Example A82B] | 2.4 | 8.96 | 1.7 | 0.92 | 0.77 | 0.86 | 0.78 | 0.68 | 1 | 0.82 | 0.9 | 1.4 | 2 | 1.8 | 0.87 | 0.87 | 2.1 | 203 | – | – | – |
| CN1CCOC2(C1)CN(c1ccc3nc4n(c3c1)C13CCC(CN(CCOc5c(cnn5C)-c5cc(cn(C)c5=O)C(=O)N4)C1)C3)C2 (single isomer, unassigned) [Example A86B] | 26 | 8.40 | 8.1 | 110 | 0.71 | 1.9 | 2.4 | 5.2 | 4.2 | 10 | 1.2 | 14 | 8.5 | 12 | 3.9 | 16 | 9.5 | 2670 | – | – | – |
